CC(C)=CCOc1c2occc2cc2ccc(=O)oc12
solubility (mole fraction)
Conditions | 288.2 K | 293.2 K | 298.2 K | 303.2 K | 308.2 K | 313.2 K | 318.2 K | 323.2 K | 328.2 K
in ethanol | 0.00325 | 0.00454 | 0.0063 | 0.00865 | 0.0118 | 0.016 | 0.0215 | 0.0288 | 0.0382
in water | 7.4e-07 | 1.03e-06 | 1.06e-06 | 1.03e-06 | 1.35e-06 | 1.46e-06 | 1.5e-06 | 1.53e-06 | 1.81e-06

Source: BigSolDB 2.1
